Like-named read-outs stand apart in the source and are kept apart here.
Experiments:
[1] = tested on: cancer cells; assay: MTS cell growth inhibition assay (72 hours); assay type: cell-based
Method in brief: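 Cells in DMEM with 1% FBS, seeded 18 h, then compound-treated 72 h at 37 °C. Viability by MTS/PMS for 4 h, formazan absorbance at 492 nm; IC50 taken as concentration giving 50% absorbance drop, activity banded by percent inhibition.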

[2] = target: T1, FGFR2 (N549H) (Homo sapiens, UniProt P21802, N549H); assay: fluorescent ELISA assay for inhibitors of FGFR2 kinase; assay type: biochemical; conditions: Pyk2 peptide substrate, 60 minutes
T1 construct: purchased Millipore 14-742
T1 sequence (P21802 22-821 N549H): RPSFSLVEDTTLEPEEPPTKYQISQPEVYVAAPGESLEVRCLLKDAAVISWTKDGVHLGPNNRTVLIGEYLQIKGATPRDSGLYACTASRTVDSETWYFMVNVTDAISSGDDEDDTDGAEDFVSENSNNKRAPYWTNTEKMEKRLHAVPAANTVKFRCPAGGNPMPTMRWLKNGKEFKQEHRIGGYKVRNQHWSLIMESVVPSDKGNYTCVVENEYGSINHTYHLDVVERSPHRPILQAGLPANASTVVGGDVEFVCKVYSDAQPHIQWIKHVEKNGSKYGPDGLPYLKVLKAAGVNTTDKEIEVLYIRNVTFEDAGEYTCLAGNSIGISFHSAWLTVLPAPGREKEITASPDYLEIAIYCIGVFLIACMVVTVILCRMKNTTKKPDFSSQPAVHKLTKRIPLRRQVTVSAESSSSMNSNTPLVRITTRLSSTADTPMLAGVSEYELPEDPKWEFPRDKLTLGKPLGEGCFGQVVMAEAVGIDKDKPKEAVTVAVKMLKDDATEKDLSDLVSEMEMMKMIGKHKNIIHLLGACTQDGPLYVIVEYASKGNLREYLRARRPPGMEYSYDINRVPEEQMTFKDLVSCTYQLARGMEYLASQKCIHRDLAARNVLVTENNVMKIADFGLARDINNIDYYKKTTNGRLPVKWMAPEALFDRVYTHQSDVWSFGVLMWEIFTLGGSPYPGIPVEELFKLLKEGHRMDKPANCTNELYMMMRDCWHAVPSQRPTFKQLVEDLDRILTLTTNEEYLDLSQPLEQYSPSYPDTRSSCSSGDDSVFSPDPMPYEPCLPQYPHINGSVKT
Method in brief: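 FGFR2 enzyme (0.5 μM) phosphorylates biotinylated Pyk2 peptide (37 μM) with 12.5 μM ATP added, in Tris-HCl buffer containing 10 mM MgCl2, 2 mM DTT and 75 μM ATP, for 60 min. Peptide captured on streptavidin 30 min at room temperature; phosphotyrosine detected by antibody, alkaline phosphatase secondary and Attophos fluorescence (ex 400/em 595 nm). Inhibition seen as signal decrease.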

[3] = Homo sapiens, DLD-1, 72 h, DLD-1 cells, read-out: DLD-1 MTS 72 hr at 10 μM
[4] = Homo sapiens, KATO III, 72 h, KATO III cells, read-out: KATO III MTS 72 hr at 10 μM
[5] = Homo sapiens, MDA-MB-231, 72 h, MDA-MB-231 cells, read-out: MDA-MB-231 MTS 72 hr at 10 μM
[6] = Homo sapiens, NCI-H1299, 72 h, NCI-H1299 cells, read-out: NCI-H1299 MTS 72 hr at 10 μM
[7] = PaCa-2, 72 h, PACA-2 cells, read-out: PACA-2 MTS 72 hr at 10 μM

melting point [°C]	IC50 [2] [µM]	SMILES	inhibition at 10 µM [1, 3] [%]	inhibition at 10 µM [1, 4] [%]	inhibition at 10 µM [1, 5] [%]	inhibition at 10 µM [1, 6] [%]	inhibition at 10 µM [1, 7] [%]
78 to 80	11	Nc1nc(N[C@H]2Cc3ccccc3N(Cc3ccc(F)cc3)C2)c2cn[nH]c2n1 [Compound 8, N^4-((3S)-1-(4-fluorobenzyl)-1,2,3,4-tetrahydroquinolin-3-yl)-1H-pyrazolo[3,4-d]pyrimidine-4,6-diamine]	> 79	> 79	< 50	< 50	< 50
155 to 164	21	Nc1nc(NC2Cc3ccccc3N(C(=O)c3ccccc3)C2)c2cn[nH]c2n1 (stereo not shown) [Compound 12, (3-(6-amino-1H-pyrazolo[3,4-d]pyrimidin-4-ylamino)-3,4-dihydroquinolin-1(2H)-yl)(phenyl)methanone]	< 50	< 50	< 50	< 50	< 50
89 to 94	10.7	Nc1nc(NC2Cc3ccccc3N(Cc3cccc(C(F)(F)F)c3)C2)c2cn[nH]c2n1 (stereo not shown) [Compound 5, N^4-(1-(3-(trifluoromethyl)benzyl)-1,2,3,4-tetrahydroquinolin-3-yl)-1H-pyrazolo[3,4-d]pyrimidine-4,6-diamine]	< 50	50 to 79	< 50	< 50	< 50
153 to 163	0.23	Nc1nc(NC2Cc3ccccc3N(S(=O)(=O)c3ccc(Cl)cc3Cl)C2)c2cn[nH]c2n1 (stereo not shown) [Compound 14, N^4-(1-(2,4-dichlorophenylsulfonyl)-1,2,3,4-tetrahydroquinolin-3-yl)-1H-pyrazolo[3,4-d]pyrimidine-4,6-diamine]	< 50	50 to 79	< 50	< 50	< 50
